Measurements: the supplement of paper PMC10307832

How the values were obtained:
Test in all cases: relative viability (nuclei count vs DMSO), 5 days (fraction); higher = more cells survive
NCI-H2126 = system: NCI-H2126
How it was run: (§1)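 After 5 days of treatment, lung cancer cells in 1536-well plates were fixed and stained in a single step (final 0.05% Triton X-100, 1% formaldehyde, 1 ug/ml Hoechst) and their nuclei counted on 4× images. Treatment had been applied by pin tool the day after seeding as one drug alone or as a fixed anchor-drug dose with five library-drug doses (not always all listed) in √10 steps. Relative viability is the nuclei count of treated wells divided by that of vehicle wells, and values are medians of duplicate plates.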

NCI-H23 = system: NCI-H23
How it was run: as §1

HARA = system: HARA
How it was run: as §1

NCI-H522 = system: NCI-H522
How it was run: as §1

NCI-H838 = system: NCI-H838
How it was run: as §1

NCI-H650 = system: NCI-H650
How it was run: as §1

NCI-H1993 = system: NCI-H1993
How it was run: as §1

LCLC-103H = system: LCLC-103H
How it was run: as §1

HCC-44 = system: HCC-44
How it was run: as §1

EMC-BAC-2 = system: EMC-BAC-2
How it was run: as §1

NCI-H2023 = system: NCI-H2023
How it was run: as §1

NCI-H3122 = system: NCI-H3122
How it was run: as §1

NCI-H1395 = system: NCI-H1395
How it was run: as §1

NCI-H441 = system: NCI-H441
How it was run: as §1

NCI-H2347 = system: NCI-H2347
How it was run: as §1

NCI-H596 = system: NCI-H596
How it was run: as §1

NCI-H2087 = system: NCI-H2087
How it was run: as §1

LOU-NH91 = system: LOU-NH91
How it was run: as §1

NCI-H647 = system: NCI-H647
How it was run: as §1

BEN = system: BEN
How it was run: as §1

201T = system: 201T
How it was run: as §1

In the case of `COc1cc2nccc(Oc3ccc(NC(=O)Nc4cc(C)on4)c(Cl)c3)c2cc1OC` [Tivozanib] + Nc1nc2[nH]cc(CCc3ccc(C(=O)N[C@@H](CCC(=O)O)C(=O)O)cc3)c2c(=O)[nH]1 [Pemetrexed] (partner 0.2 µM), the relative viability (NCI-H2126; first compound 0.005 µM) is reported as 0.692, the relative viability (NCI-H2126; first compound 0.01581 µM) is reported as 0.684 and the relative viability (NCI-H2126; first compound 0.05 µM) is reported as 0.691. The relative viability (NCI-H2126; first compound 0.1581 µM) was 0.582, the relative viability (NCI-H2126; first compound 0.5 µM) was 0.589 and the relative viability (NCI-H23; first compound 0.005 µM) was 0.588. For the same compound, the relative viability (NCI-H23; first compound 0.01581 µM) was 0.771, the relative viability (NCI-H23; first compound 0.05 µM) was 0.787 and the relative viability (NCI-H23; first compound 0.5 µM) was 0.54. For the same compound, the relative viability (HARA; first compound 0.005 µM) was 0.275, the relative viability (HARA; first compound 0.01581 µM) was 0.259 and the relative viability (HARA; first compound 0.05 µM) was 0.249. For the same compound, the relative viability (HARA; first compound 0.1581 µM) was 0.243, the relative viability (HARA; first compound 0.5 µM) was 0.245 and the relative viability (NCI-H522; first compound 0.005 µM) was 1.03. The relative viability (NCI-H522; first compound 0.01581 µM) was 1.1, the relative viability (NCI-H522; first compound 0.05 µM) was 1.04 and the relative viability (NCI-H522; first compound 0.1581 µM) was 0.824. For the same compound, the relative viability (NCI-H522; first compound 0.5 µM) was 1.15, the relative viability (NCI-H838; first compound 0.005 µM) was 0.242 and the relative viability (NCI-H838; first compound 0.01581 µM) was 0.253. The relative viability (NCI-H838; first compound 0.05 µM) was 0.252, the relative viability (NCI-H838; first compound 0.1581 µM) was 0.257 and the relative viability (NCI-H838; first compound 0.5 µM) was 0.22. It also gave a relative viability (NCI-H650; first compound 0.005 µM) of 0.892, a relative viability (NCI-H650; first compound 0.01581 µM) of 0.98 and a relative viability (NCI-H650; first compound 0.05 µM) of 0.879. The relative viability (NCI-H650; first compound 0.1581 µM) was 0.679, the relative viability (NCI-H650; first compound 0.5 µM) was 0.734 and the relative viability (NCI-H1993; first compound 0.005 µM) was 0.572. For the same compound, the relative viability (NCI-H1993; first compound 0.01581 µM) was 0.467, the relative viability (NCI-H1993; first compound 0.05 µM) was 0.674 and the relative viability (NCI-H1993; first compound 0.1581 µM) was 0.499. The relative viability (NCI-H1993; first compound 0.5 µM) was 0.662, the relative viability (LCLC-103H; first compound 0.005 µM) was 0.453 and the relative viability (LCLC-103H; first compound 0.01581 µM) was 0.508. For the same compound, the relative viability (LCLC-103H; first compound 0.05 µM) was 0.49, the relative viability (LCLC-103H; first compound 0.1581 µM) was 0.459 and the relative viability (LCLC-103H; first compound 0.5 µM) was 0.46. It also gave a relative viability (HCC-44; first compound 0.005 µM) of 0.651, a relative viability (HCC-44; first compound 0.01581 µM) of 0.62 and a relative viability (HCC-44; first compound 0.05 µM) of 0.687. The relative viability (HCC-44; first compound 0.1581 µM) was 0.802, the relative viability (HCC-44; first compound 0.5 µM) was 0.627 and the relative viability (EMC-BAC-2; first compound 0.005 µM) was 0.463. For the same compound, the relative viability (EMC-BAC-2; first compound 0.01581 µM) was 0.465, the relative viability (EMC-BAC-2; first compound 0.05 µM) was 0.431 and the relative viability (EMC-BAC-2; first compound 0.1581 µM) was 0.507. For the same compound, the relative viability (EMC-BAC-2; first compound 0.5 µM) was 0.398, the relative viability (NCI-H2023; first compound 0.005 µM) was 0.405 and the relative viability (NCI-H2023; first compound 0.01581 µM) was 0.216. It also gave a relative viability (NCI-H2023; first compound 0.05 µM) of 0.255, a relative viability (NCI-H2023; first compound 0.1581 µM) of 0.224 and a relative viability (NCI-H2023; first compound 0.5 µM) of 0.211. For the same compound, the relative viability (NCI-H3122; first compound 0.005 µM) was 0.197, the relative viability (NCI-H3122; first compound 0.01581 µM) was 0.222 and the relative viability (NCI-H3122; first compound 0.05 µM) was 0.198. The relative viability (NCI-H3122; first compound 0.1581 µM) was 0.204, the relative viability (NCI-H3122; first compound 0.5 µM) was 0.19 and the relative viability (NCI-H1395; first compound 0.005 µM) was 0.89. It also gave a relative viability (NCI-H1395; first compound 0.01581 µM) of 1.02, a relative viability (NCI-H1395; first compound 0.05 µM) of 0.938 and a relative viability (NCI-H1395; first compound 0.1581 µM) of 0.775. The relative viability (NCI-H1395; first compound 0.5 µM) was 0.579, the relative viability (NCI-H441; first compound 0.005 µM) was 0.245 and the relative viability (NCI-H441; first compound 0.01581 µM) was 0.296. The relative viability (NCI-H441; first compound 0.05 µM) was 0.246, the relative viability (NCI-H441; first compound 0.1581 µM) was 0.249 and the relative viability (NCI-H441; first compound 0.5 µM) was 0.239. It also gave a relative viability (NCI-H2347; first compound 0.005 µM) of 0.4, a relative viability (NCI-H2347; first compound 0.01581 µM) of 0.458 and a relative viability (NCI-H2347; first compound 0.05 µM) of 0.388. It also gave a relative viability (NCI-H2347; first compound 0.1581 µM) of 0.427, a relative viability (NCI-H2347; first compound 0.5 µM) of 0.487 and a relative viability (NCI-H596; first compound 0.005 µM) of 0.492. For the same compound, the relative viability (NCI-H596; first compound 0.01581 µM) was 0.502, the relative viability (NCI-H596; first compound 0.05 µM) was 0.51 and the relative viability (NCI-H596; first compound 0.5 µM) was 0.508. It also gave a relative viability (NCI-H2087; first compound 0.005 µM) of 0.654, a relative viability (NCI-H2087; first compound 0.01581 µM) of 0.696 and a relative viability (NCI-H2087; first compound 0.05 µM) of 0.66. For the same compound, the relative viability (NCI-H2087; first compound 0.1581 µM) was 0.7, the relative viability (NCI-H2087; first compound 0.5 µM) was 0.653 and the relative viability (LOU-NH91; first compound 0.005 µM) was 0.341. It also gave a relative viability (LOU-NH91; first compound 0.01581 µM) of 0.364, a relative viability (LOU-NH91; first compound 0.05 µM) of 0.371 and a relative viability (LOU-NH91; first compound 0.1581 µM) of 0.525. The relative viability (LOU-NH91; first compound 0.5 µM) was 0.338, the relative viability (NCI-H647; first compound 0.005 µM) was 0.155 and the relative viability (NCI-H647; first compound 0.01581 µM) was 0.207. The relative viability (NCI-H647; first compound 0.05 µM) was 0.152, the relative viability (NCI-H647; first compound 0.1581 µM) was 0.189 and the relative viability (NCI-H647; first compound 0.5 µM) was 0.149. For the same compound, the relative viability (BEN; first compound 0.005 µM) was 0.647, the relative viability (BEN; first compound 0.01581 µM) was 0.858 and the relative viability (BEN; first compound 0.05 µM) was 0.834. For the same compound, the relative viability (BEN; first compound 0.1581 µM) was 0.397, the relative viability (BEN; first compound 0.5 µM) was 0.689 and the relative viability (201T; first compound 0.005 µM) was 0.314. The relative viability (201T; first compound 0.01581 µM) was 0.319, the relative viability (201T; first compound 0.05 µM) was 0.351 and the relative viability (201T; first compound 0.1581 µM) was 0.351. For the same compound, the relative viability (201T; first compound 0.5 µM) was 0.367.
